Legend:
Assay type in all cases: cell-based
[1] = test system: Human primary gingival fibroblasts; assay: Detergent treatment of lipid-bearing surfaces, gingival fibroblast morphology; settings: 0.1% detergent in PBS, 1 mL on PGDHC-coated wells, 4° C. overnight
Method: (§1) Tissue culture flasks coated with bacterial lipids were used as a model of lipid-coated biological surfaces. Human primary gingival fibroblasts were maintained in 10 mm dishes in Minimun Essential Medium (GIBCO Cat #10370) 90% with 10% heat-inactivated FCS, penicillin (100 U/ml) and streptomycin ([…]). The cells were plated onto the 6-well tissue culture plate with individual wells treated as indicated below and grown at 37° C. in a humidified atmosphere of 5% CO2 in air.
(§2) Lipid coating: The HPLC-purified P. gingivalis phosphoglycerol dihydroceramide (PGDHC) was dissolved in ethanol and added to the 6-well tissue culture plate (10 μg of lipid/well, 10.5 ng/mm^2). The solvent was allowed to evaporate in a laminar flow hood overnight leaving the lipid deposited on the culture well surface. Sham-coated control wells received only ethanol solvent.
Detergents: 3-[(3-Cholamidopropyl) dimethylammonio]-1-propanesulfonate (CHAPS), Sodium cholate (Cholate), and Tween-20 (Tween) were dissolved at the concentration of 0.1% in phosphate buffered saline (Gibco cat. 1490). 1 mL of freshly prepared […] was added to the wells coated with P. gingivalis phosphoglycerol dihydroceramide. 1 mL of PBS was added to phosphoglycerol dihydroceramide-coated well as a control. The plate was incubated at 4° C. overnight on a rocking platform.
Detergent treatment of uncoated wells had no effect on primary fibroblasts (data not shown).

[2] = test system: peripheral blood monocytes; assay: Morphological changes in peripheral blood monocytes on lipid-coated wells; settings: treated with 1 μg/mL lipopolysaccharide, 26 hours
Method: Tissue culture flasks coated with bacterial lipids were used as a model of lipid-coated biological surfaces. The HPLC-purified P. gingivalis lipids were dissolved in ethanol and added to the tissue culture plate. The solvent was allowed to evaporate in a laminar flow hood overnight leaving the lipid deposited on the culture well surface. Sham-coated control wells received only ethanol solvent.
Peripheral blood monocytes were plated into 6-well culture dishes previously coated with the indicated lipid fractions (10 μg of lipid/well, 10.5 ng/mm^2) and were incubated for 26 hours. Culture (a) was the sham coating control, (b) was coated with the total lipid extract of P. gingivalis, (c) was coated with the P. gingivalis dihydroceramide fraction, (d) was coated with the phosphoethanolamine lipids and (e) was coated with the phosphoethanolamine dihydroceramide lipid fraction, (f) was treated with 1 μg/mL Salmonella typhimurium lipopolysaccharide.

[3] = test system: Human primary gingival fibroblasts; assay: Collagen coating of lipid-bearing surfaces, gingival fibroblast morphology
Method: as §1, with “24-well” for “6-well”
as §2, with “dihydroceramide” for “dihydroceramide (PGDHC)”, “24-well” for “6-well”, “(2” for “(10”
Collagen coating: 0.5 mL of 50 μg/mL collagen dissolved in 0.02N Acetic acid was added to the 24-well tissue culture plate, and incubated at 4° C. overnight on a rocking platform. The collagen solution was aspirated, and the wells were washed with PBS.
The treatments were done in triplicate.

Molecule: polyoxyethylene(20) sorbitan monolaurate [Tween-20]
- negation of the biological effect of surface-deposited PGDHC [1]: negated the biological effect of bacterial lipid

Molecule: lipopolysaccharide
- cell clustering of monocytes [2]: did not produce similar cell clustering

Molecule: C[C@H](CCC(=O)[O-])[C@H]1CC[C@H]2[C@@H]3[C@H](O)C[C@@H]4C[C@H](O)CC[C@]4(C)[C@H]3C[C@H](O)[C@]12C.[Na+] [sodium cholate, Sodium cholate]
- negation of the biological effect of surface-deposited PGDHC [1]: negated the biological effect of bacterial lipid

Molecule: C[C@H](CCC(=O)NCCC[N+](C)(C)CCCS(=O)(=O)[O-])[C@H]1CC[C@H]2[C@@H]3[C@H](O)C[C@@H]4C[C@H](O)CC[C@]4(C)[C@H]3C[C@H](O)[C@]12C [CHAPS, 3-[(3-Cholamidopropyl)dimethylammonio]-1-propanesulfonate]
- negation of the biological effect of surface-deposited PGDHC [1]: negated the biological effect of bacterial lipid

Molecule: collagen
- effect of coating alone on primary fibroblasts ([3]; 0.5 mL of 50 μg/mL collagen, wells without lipid): did not have any effect
- blocking of the biological effect of surface-deposited phosphoglycerol dihydroceramide ([3]; collagen coated on top of PGDHC (2 μg of lipid/well, 10.5 ng/mm^2)): blocked the biological effect

Reference: US20090186079A1, “Oral and overall health by negating the biological effects of bacterial lipids” (priority 2008, published 2009)
